“And” between values parts separate entries of the source, which are not always exact repeats. Identical values can stand only once. Like-named read-outs stand apart in the source and are kept apart here.
How the values were obtained:
rats = experiment: Scratching behavior after intradermal injection in rats; conditions: 500 μg/50 μl, first 30 min
MrgprA1 [1] = target: T1, MrgprA1 (Mus musculus, UniProt Q91WW5); experiment: Calcium imaging of HEK293 cells transfected with Mrgpr-GFP constructs; format: cell-based; parameters: expressed in transfected cells; conditions: CQ 1 mM, FMRF 2 μM
T1 sequence (Q91WW5 1-304): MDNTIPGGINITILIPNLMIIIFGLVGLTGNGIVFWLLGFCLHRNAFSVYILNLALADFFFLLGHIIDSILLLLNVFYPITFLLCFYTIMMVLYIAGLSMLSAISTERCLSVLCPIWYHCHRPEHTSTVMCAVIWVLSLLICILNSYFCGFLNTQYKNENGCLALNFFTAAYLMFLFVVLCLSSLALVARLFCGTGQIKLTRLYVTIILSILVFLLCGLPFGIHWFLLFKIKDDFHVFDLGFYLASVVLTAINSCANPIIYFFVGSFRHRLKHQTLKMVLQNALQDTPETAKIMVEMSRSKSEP
Description: (§1) Each of the twelve Mrgprs that were deleted in Mrgpr-clusterΔ^−/− mice were cloned into a mammalian expression vector (FIG. 1A), and transfected individually into human embryonic kidney (HEK) 293 cells. By fusing green fluorescent protein (GFP) to the C-termini of the Mrgpr coding sequences, both transfected cells and the proper membrane localization of the receptors was visualized. […] Increased [Ca^2+]i resulting from activation of the receptors was monitored by calcium imaging.
(§2) HEK293 cells were transfected with Mrgpr-expression constructs using Lipofectamine 2000 (Invitrogen) according to the manufacturer's protocol.

MrgprA3 [2] = target: T2, MrgprA3 (Mus musculus, UniProt Q91WW3); experiment: as above; format: cell-based; parameters: expressed in transfected cells; host or cells: HEK293
T2 sequence (Q91WW3 1-302): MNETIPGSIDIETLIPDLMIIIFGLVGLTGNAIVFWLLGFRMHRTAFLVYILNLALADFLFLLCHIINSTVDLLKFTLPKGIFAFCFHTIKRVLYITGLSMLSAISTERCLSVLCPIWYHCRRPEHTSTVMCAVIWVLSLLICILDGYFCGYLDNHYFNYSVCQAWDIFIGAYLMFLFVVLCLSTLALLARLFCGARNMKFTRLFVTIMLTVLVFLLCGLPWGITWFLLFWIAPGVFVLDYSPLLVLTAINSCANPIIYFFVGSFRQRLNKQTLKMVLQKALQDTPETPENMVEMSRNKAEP
Description: as §1
(§3) Serotonin also has a bicyclic structure. […] Quinine is another drug used to treat malaria and its side effects also include itch. However, it is unclear if quinine-induced itch is an allergic response.
(§4) HEK293 cells were cultured in growth medium consisted of 90% DMEM, 10% fetal bovine serum, 100 U/ml penicillin, and 100 μg/ml Streptomycin (Invitrogen) at 37° C. in the presence of […] and 5% CO2. HEK293 cells were transfected with Mrgpr-expression constructs using Lipofectamine 2000 (Invitrogen) according to the manufacturer's protocol.

MrgprX1 [3] = target: T3, MrgprX1 (Homo sapiens, UniProt Q96LB2); experiment: as above; format: cell-based; conditions: for activation of MrgprX1 (increased [Ca2+]i): BAM8-22 2 μM
Procedure: (§5) The human Mrgpr family (i.e. MrgprXs) is much smaller than the murine family.
as §3, §4

rat MrgprC = target: T4, rat MrgprC (Rattus norvegicus, UniProt Q8R4G1); experiment: Rescue: Mrgpr-clusterΔ-/- DRG neurons electroporated with rat Mrgpr, calcium imaging
T4 sequence (Q8R4G1 1-323): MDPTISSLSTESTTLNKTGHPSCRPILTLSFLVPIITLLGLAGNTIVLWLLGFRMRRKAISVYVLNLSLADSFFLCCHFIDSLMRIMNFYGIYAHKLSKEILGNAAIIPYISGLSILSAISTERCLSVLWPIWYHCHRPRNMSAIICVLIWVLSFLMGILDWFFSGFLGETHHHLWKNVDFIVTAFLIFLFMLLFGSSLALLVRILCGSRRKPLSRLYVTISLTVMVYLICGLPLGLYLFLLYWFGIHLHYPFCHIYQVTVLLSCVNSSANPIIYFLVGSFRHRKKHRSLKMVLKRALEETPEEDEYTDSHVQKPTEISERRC

mice = experiment: Scratching behavior after pruritogen injection in mice; format: in vivo, mouse; conditions: for total number of scratching bouts: first 30 min after CQ injection (200 μg/50 μl, 8 mM); for scratching in Mrgpr-clusterΔ-/- mice compared with WT: 30 min, histamine 10 μmol, compound 48/80 100 μg/50 μl, CQ 200 μg/50 μl, BAM8-22 50 μl of 1 mM
Description: Kuraishi et al., (1995). […] F. (2007) Nature 448, 700-703).

DRG neurons [4] = experiment: Whole-cell current-clamp recording of action potentials in DRG neurons; format: cell-based, mouse; conditions: CQ 1 mM
Description: To determine whether CQ can directly induce action potentials (APs) in dissociated DRG neurons, using whole-cell patch clamp recording. […] These studies provide strong evidence that CQ can directly excite a small subpopulation of sensory neurons in DRG and that Mrgprs are required for this effect. Similar to the mouse results, CQ induces robust activation in a subset of rat DRG neurons as determined by both an increase in [Ca^2+]i and generation of APs (FIG. 4).
Patch pipettes had resistances of 2-4 MΩ. […] All experiments were performed at room temperature ([…]).

DRG neurons [5] = experiment: Calcium imaging of cultured dissociated DRG neurons; format: cell-based, mouse; conditions: for DRG neurons responding: Mrgpr-clusterΔ-/- mice; for effect on CQ-induced [Ca2+]i increase: WT DRG neurons
Procedure: Dorsal root ganglia from all spinal levels of 4-week old mice or rats were collected in cold DH10 (90% DMEM/F-12, 10% FBS, 100 U/ml penicillin, and 100 μg/ml Streptomycin, Gibco) and treated with enzyme solution (5 mg/ml Dispase, 1 mg/ml Collagenase Type I in HPBS without Ca^++ and Mg^++, Gibco) at 37° C. Following trituration and centrifugation, cells were resuspended in DH10, plated on glass cover slips coated with poly-D-lysine (0.5 mg/ml, Stoughton, Mass.) and laminin (10 μg/ml, Invitrogen), cultured in an incubator (95% O2 and 5% CO2) at 37° C. and used within 24 hours.

[6] = cited from earlier work
[7] = cited from earlier work; remark: listed apart in the source
MrgprA3 [8] = target: T2, MrgprA3; experiment: Rescue: Mrgpr-clusterΔ-/- DRG neurons electroporated with Mrgpr construct; format: cell-based
Procedure: (§6) To determine whether MrgprA3 or MrgprX1 can rescue the phenotypes of DRG neurons from Mrgpr-clusterΔ^−/− mice, the Mrgpr expression constructs used in the heterologous studies were electroporated into dissociated adult DRG neurons from these mice. After 24 hour in culture, expression and membrane localization of the transfected Mrgprs in the mutant neurons could be readily visualized by GFP (FIG. 8G).

MrgprX1 [9] = target: T3, MrgprX1; experiment: as above; format: cell-based, mouse
Procedure: as §6

MrgprA4 = target: T5, MrgprA4 (Mus musculus, UniProt Q91WW2); experiment: Calcium imaging of HEK293 cells transfected with Mrgpr-GFP constructs; format: cell-based; conditions: NPFF 2 μM
T5 construct: expressed in transfected cells; host or cells: HEK293
T5 sequence (Q91WW2 1-313): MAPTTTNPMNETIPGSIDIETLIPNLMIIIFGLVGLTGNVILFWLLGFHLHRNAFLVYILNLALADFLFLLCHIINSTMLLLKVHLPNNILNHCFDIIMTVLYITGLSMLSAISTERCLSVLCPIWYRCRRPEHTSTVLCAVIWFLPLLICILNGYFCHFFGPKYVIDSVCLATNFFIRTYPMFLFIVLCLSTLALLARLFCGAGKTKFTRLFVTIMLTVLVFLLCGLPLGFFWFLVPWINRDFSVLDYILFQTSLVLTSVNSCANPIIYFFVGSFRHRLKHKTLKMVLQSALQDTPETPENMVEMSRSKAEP
Description: as §1, §2

MrgprC11 = target: T6, MrgprC11 (Mus musculus, UniProt Q8CIP3); experiment: as above; format: cell-based; conditions: BAM8-22 2 μM
T6 construct: expressed in transfected cells; host or cells: HEK293
T6 sequence (Q8CIP3 1-322): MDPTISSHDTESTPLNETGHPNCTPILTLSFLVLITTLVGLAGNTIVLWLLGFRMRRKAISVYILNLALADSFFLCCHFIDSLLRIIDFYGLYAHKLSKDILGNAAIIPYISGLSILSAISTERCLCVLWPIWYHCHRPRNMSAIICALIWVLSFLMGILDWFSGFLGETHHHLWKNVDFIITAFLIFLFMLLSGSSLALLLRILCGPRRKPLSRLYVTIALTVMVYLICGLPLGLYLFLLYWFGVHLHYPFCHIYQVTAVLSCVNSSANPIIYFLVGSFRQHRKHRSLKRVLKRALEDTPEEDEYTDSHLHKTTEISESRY
Description: as §1, §2

MrgprA1 [10] = target: T1, MrgprA1; experiment: Rescue: Mrgpr-clusterΔ-/- DRG neurons electroporated with Mrgpr construct; format: cell-based; parameters: expressed in transfected cells; host or cells: dissociated adult DRG neurons of Mrgpr-cluster-deleted mice
Procedure: as §6

MrgprX2 = target: T7, MrgprX2 (Homo sapiens, UniProt Q96LB1); experiment: Calcium imaging of transfected HEK293 cells; format: cell-based
T7 construct: expressed in transfected cells; host or cells: HEK293
T7 sequence (Q96LB1 1-330): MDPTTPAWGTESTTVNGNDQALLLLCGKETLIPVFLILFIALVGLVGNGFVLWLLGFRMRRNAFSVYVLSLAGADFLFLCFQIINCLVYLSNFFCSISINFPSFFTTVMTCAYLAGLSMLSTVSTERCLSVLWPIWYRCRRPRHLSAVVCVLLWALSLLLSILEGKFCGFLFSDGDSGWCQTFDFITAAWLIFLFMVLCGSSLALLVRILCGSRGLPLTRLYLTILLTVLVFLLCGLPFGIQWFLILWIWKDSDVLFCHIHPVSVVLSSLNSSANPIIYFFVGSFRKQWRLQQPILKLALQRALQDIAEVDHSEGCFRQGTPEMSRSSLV
Description: as §5

MrgprX3 = target: T8, MrgprX3 (Homo sapiens, UniProt Q96LB0); experiment: Calcium imaging of transfected HEK293 cells; format: cell-based
T8 construct: expressed in transfected cells; host or cells: HEK293
Description: as §5

histamine H1 receptor = histamine H1 receptor (Homo sapiens, UniProt P35367); conditions: HEK293 cells; histamine 50 μM
Description: as §1, §4

T3 sequence (Q96LB2 whole entry): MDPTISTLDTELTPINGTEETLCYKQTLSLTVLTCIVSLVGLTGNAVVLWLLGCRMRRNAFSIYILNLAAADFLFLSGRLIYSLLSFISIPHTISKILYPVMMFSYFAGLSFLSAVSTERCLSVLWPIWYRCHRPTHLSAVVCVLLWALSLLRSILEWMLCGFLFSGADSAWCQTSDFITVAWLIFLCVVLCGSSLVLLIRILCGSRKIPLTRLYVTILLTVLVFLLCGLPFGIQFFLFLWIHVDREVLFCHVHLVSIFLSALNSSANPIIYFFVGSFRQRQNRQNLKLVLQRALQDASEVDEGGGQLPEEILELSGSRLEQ
histamine H1 receptor, sequence (P35367 whole entry, species assumed): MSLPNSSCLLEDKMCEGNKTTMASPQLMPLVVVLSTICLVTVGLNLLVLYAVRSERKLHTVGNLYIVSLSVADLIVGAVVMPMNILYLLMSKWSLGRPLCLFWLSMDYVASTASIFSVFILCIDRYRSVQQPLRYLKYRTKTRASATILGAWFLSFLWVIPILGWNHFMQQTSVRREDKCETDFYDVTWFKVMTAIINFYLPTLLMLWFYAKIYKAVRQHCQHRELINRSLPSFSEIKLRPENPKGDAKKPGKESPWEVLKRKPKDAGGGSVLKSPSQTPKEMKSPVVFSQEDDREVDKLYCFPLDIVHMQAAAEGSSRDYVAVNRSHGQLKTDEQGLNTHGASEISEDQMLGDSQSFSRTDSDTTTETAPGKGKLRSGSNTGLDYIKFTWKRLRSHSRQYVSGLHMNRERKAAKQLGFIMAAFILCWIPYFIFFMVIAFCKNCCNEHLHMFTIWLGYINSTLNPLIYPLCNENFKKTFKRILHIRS
T8 sequence (Q96LB0 whole entry): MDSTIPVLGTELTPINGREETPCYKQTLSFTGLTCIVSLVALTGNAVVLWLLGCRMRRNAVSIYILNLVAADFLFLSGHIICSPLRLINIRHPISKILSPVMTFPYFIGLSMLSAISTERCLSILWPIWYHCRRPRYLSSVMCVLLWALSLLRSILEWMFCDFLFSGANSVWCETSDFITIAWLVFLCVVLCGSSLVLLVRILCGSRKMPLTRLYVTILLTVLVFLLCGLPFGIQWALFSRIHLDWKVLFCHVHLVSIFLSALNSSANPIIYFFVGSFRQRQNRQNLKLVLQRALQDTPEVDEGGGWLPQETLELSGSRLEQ

CCN(CC)CCCC(C)Nc1ccnc2cc(Cl)ccc12 (stereo not shown) [CQ, Chloroquine]
scratching responses (rats): evoked profound scratching responses | response of MrgprA1-transfected cells (increased [Ca2+]i) (MrgprA1 [1]): fewer than half of MrgprA1-tranfected cells responded | activation of MrgprA3 (increased [Ca2+]i) (MrgprA3 [2]): strong response | EC50 (MrgprA3 [2]; dose-response, calcium imaging): 27.6 ± 2.03 µM | activation of MrgprX1 (increased [Ca2+]i) (MrgprX1 [3]): responded | EC50 (MrgprX1 [3]; dose-response, calcium imaging): 297.7 ± 2.1 µM | response of rat MrgprC-electroporated Mrgpr-deficient neurons (rat MrgprC): did not | occurrence of the first scratching behavior (mice; Mrgpr-clusterΔ-/- (KO) mice): 280.5 ± 35.0 s | total number of scratching bouts (mice; Mrgpr-clusterΔ-/- mice): 104±13 | occurrence of the first scratching behavior (mice; WT mice): 57.8 ± 25.4 s | time at which scratching peaked (mice; WT mice): ≤ 15 min | first bout observed after injection (mice; WT mice, typical): 1 to 2 min | total number of scratching bouts (mice; WT mice): 278±21 | neurons showing any response (DRG neurons [4]; Mrgpr-clusterΔ-/- mice): none of 11 | action potentials in CQ-sensitive neurons (DRG neurons [4]; WT DRG): displayed a train of APs | DRG neurons responding (DRG neurons [5]): none of the neurons | percentage of DRG neurons responding with increased [Ca2+]i (DRG neurons [5]; WT mice, CQ 1 mM, BAM8-22 2 μM): ~4.4% and 4-5% | reduction of calcium responses on sequential application (DRG neurons [5]; WT neurons): ~20% | patients refusing further treatment because of unbearable itch ([6]; African patients): ~30% | incidence of itch as side effect ([6]; black Africans): up to 70% | concentration in patient plasma ([7]; plasma): micromolar range | concentration reached in skin and other pigmented tissues ([7]; skin): high micromolar to millimolar concentrations | [Ca2+]i response of MrgprA3-expressing mutant neurons (MrgprA3 [8]): showed increased [Ca^2+]i | action potentials in MrgprA3-expressing mutant neurons (MrgprA3 [8]): generated numerous APs | MrgprX1-electroporated GFP-positive neurons generating a train of APs (MrgprX1 [9]): 5 out of 7 | [Ca2+]i response of MrgprX1-electroporated mutant neurons (MrgprX1 [9]): sensitivity | response of MrgprA4-expressing cells (MrgprA4): insensitive | response of MrgprC11-expressing cells (MrgprC11): failed to respond | MrgprA1-electroporated neurons eliciting a few APs (MrgprA1 [10]): 3 out of 7 | [Ca2+]i response of MrgprA1-electroporated mutant neurons (MrgprA1 [10]): only a small portion responded | response of MrgprX2-expressing cells (MrgprX2): completely insensitive | response of MrgprX3-expressing cells (MrgprX3): completely insensitive

O=C(O)CN(CCOCCOCCN(CC(=O)O)CC(=O)O)CC(=O)O [EGTA]
effect on CQ-induced [Ca2+]i increase (DRG neurons [5]): almost completely blocked

N.N.N.N.N.N.N.N.N.N.N.N.N.N.[Cl-].[Cl-].[Cl-].[Cl-].[Cl-].[Cl-].[O-2].[O-2].[Ru+3].[Ru+3].[Ru+4] [Ruthenium red]
effect on CQ-induced [Ca2+]i increase (DRG neurons [5]): severely attenuated

NCCc1c[nH]c2ccc(O)cc12 [Serotonin]
activation of MrgprA3 (MrgprA3 [2]; 100 μM): failed to activate

NCCc1c[nH]cn1 [histamine]
response of histamine H1 receptor-expressing cells (histamine H1 receptor): strong response | activation of MrgprA3 (increased [Ca2+]i) (MrgprA3 [2]): did not respond | scratching in Mrgpr-clusterΔ-/- mice compared with WT (mice): No significant difference | percentage of DRG neurons responding, WT versus mutant cultures (DRG neurons [5]; histamine 50 μM): identical

C=C[C@H]1C[N@@]2CC[C@H]1C[C@H]2[C@H](O)c1ccnc2ccc(OC)cc12 [quinine]
activation of MrgprA3 (increased [Ca2+]i) (MrgprA3 [2]): weakly activates

c1ccc2ncccc2c1 [quinoline]
scratching responses (rats): did not | activation of MrgprA3 (increased [Ca2+]i) (MrgprA3 [2]): completely failed to activate | activation of MrgprX1 (increased [Ca2+]i) (MrgprX1 [3]): completely failed to activate | scratching behavior evoked (mice; both WT and mutant mice): did not evoke any scratching behavior

BAM8-22: bovine adrenal medulla peptide; MrgprC11-specific agonist (VGRPEWWMDYQKRYG)
activation of MrgprA3 (increased [Ca2+]i) (MrgprA3 [2]): did not respond | activation of MrgprX1 (increased [Ca2+]i) (MrgprX1 [3]): responded | response of rat MrgprC-electroporated Mrgpr-deficient neurons (rat MrgprC; BAMS-22 10 μM): responded | scratching in Mrgpr-clusterΔ-/- mice compared with WT (mice): dramatic reduction | scratching behavior evoked (mice; WT mice, intradermal injection, 50 μl of 1 mM): induced strong scratching behavior | DRG neurons responding (DRG neurons [5]): no DRG neurons | [Ca2+]i response of MrgprX1-electroporated mutant neurons (MrgprX1 [9]): sensitivity | response of MrgprC11-expressing cells (MrgprC11): responded

FMRF: molluscan FMRFamide, peptide agonist of MrgprA1
response of MrgprA1-transfected cells (increased [Ca2+]i) (MrgprA1 [1]): all transfected cells responded | [Ca2+]i response of MrgprA1-electroporated mutant neurons (MrgprA1 [10]; FMRF 2 μM): strong response

NPFF: mammalian neuropeptide FF, peptide agonist of MrgprA4
response of MrgprA4-expressing cells (MrgprA4): respond
